Experimental data published in PMC6817905, “Inhibition of translation termination by small molecules targeting ribosomal release factors” (Scientific Reports, 2019).

Tests used:
[1] = test system: Staphylococcus aureus strain ATCC29213; test: MIC on bacterial growth, wt S. aureus (broth micro-dilution); assay type: cell-based
Description: The minimal inhibitory concentrations (MIC) of the drugs were measured in 96-well round-bottom microtiter plates using cation-adjusted Mueller-Hinton II (MH II) media. All measurements were done with at least three biological replicates. Briefly, bacterial colonies from a non-selective agar plate were re-suspended in 0.9% NaCl to 0.5 McFarland ( ≅1.5×10^8 cfu/ml). The cell suspension was further diluted to ≅5×10^5 cfu/ml (50 µl of bacterial suspension to 10 ml of MHII) and then 90 µl of cell suspension ( ≅5×10^5 cfu/l) was added to each well. […] The MIC value was determined visually as the lowest concentration of drug that inhibited growth.

[2] = test system: Escherichia coli strain MG1655; test: MIC on bacterial growth, wt E. coli (broth micro-dilution); assay type: cell-based; settings: 500 mg l^−1 highest concentration tested
Description: The four different strains analyzed were wild type (wt) Staphylococcus aureus (strain ATCC 29213), wt Escherichia coli (strain MG1655, K12), a drug-hypersensitive E. coli lpxC mutant D22 (strain MG1655) and an efflux-defective E. coli ΔtolC mutant (strain MG1655). These were grown in cation-adjusted Mueller Hinton II media (MH II, Nordic Biolabs), the standard medium for antibiotic susceptibility testing. For overnight cell cultures one colony from a MH II (Nordic Biolabs) plate was inoculated in 1 ml MH II media in a 10 ml tube and the bacteria was incubated at 37 °C shaking at 190 rpm. Cells from the overnight culture was used for MIC determinations and time-kill experiments.
The minimal inhibitory concentrations (MIC) of the drugs were measured in 96-well round-bottom microtiter plates using cation-adjusted Mueller-Hinton II (MH II) media. All measurements were done with at least three biological replicates. Briefly, bacterial colonies from a non-selective agar plate were re-suspended in 0.9% NaCl to 0.5 McFarland ( ≅1.5×10^8 cfu/ml). The cell suspension was further diluted to ≅5×10^5 cfu/ml (50 µl of bacterial suspension to 10 ml of MHII) and then 90 µl of cell suspension ( ≅5×10^5 […]) was added to each well. […] The MIC value was determined visually as the lowest concentration of drug that inhibited growth.

PTC of the ribosome [3] = target: PTC of the ribosome; parameters: method as in PMID 23824292; settings: fold higher Ki than for termination; cited from earlier work
PTC of the ribosome [4] = target: PTC of the ribosome; parameters: method as in PMID 23824292; settings: read-out: Apparent Ki, peptide release; cited from earlier work

Q: Which “MIC S. aureus wt” value [1] does the source give for kirromycin here?
A: 100 µg/mL

Q: What about the “MIC E. coli K12 wt” value [2] of the same compound?
A: 50 µg/mL

Q: Which “Ki for peptide bond formation relative to termination reaction” value (PTC of the ribosome [3]) does the source give for `CN(CC[C@H](N)CC(=O)N[C@H]1C=C[C@H](n2ccc(N)nc2=O)O[C@@H]1C(=O)O)C(=N)N` [Blasticidin S] here?
A: 6 fold

Q: And the Ki (PTC of the ribosome [4])?
A: ~30 nM
